Test results as given in patent publication US5316929A, “Process for the preparation of MA” (Hoechst Aktiengesellschaft, priority 1991, dated 1994).
Entries after “also recorded” stand apart in the source; their conditions may differ.

Test system: biosynthesis of the peptidoglycan framework of the bacterial cell wall
Test: not given
Conditions: cited from earlier work

| Compound | Inhibition of the biosynthesis of the peptidoglycan framework of the bacterial cell wall |
| --- | --- |
| C=C(C/C=C(\C)CCC=C(C)C)CCC(C)(C)/C=C/CC/C(C)=C/CO[C@@H](COP(=O)(O)O[C@H]1O[C@H](C(N)=O)[C@@](C)(O)[C@H](OC(N)=O)[C@H]1O[C@@H]1O[C@H](CO[C@@H]2O[C@H](CO)[C@@H](O)[C@H](O)[C@H]2O)[C@@H](O[C@@H]2O[C@H](C)[C@@H](O[C@@H]3O[C@H](C(=O)NC4=C(O)CCC4=O)[C@H](O)[C@H](O)[C@H]3O)[C@H](O)[C@H]2NC(C)=O)[C@H](O)[C@H]1NC(C)=O)C(=O)O [Moenomycin A] | inhibits |

Test system: moenomycinase
Test: Moenomycinase activity (cleavage of moenomycin A, TLC/UV analysis)
Assay type: biochemical, Bacillus sp. DSM 4675
Conditions: EDTA 10 mM in FIG. 1
Procedure: Partially purified moenomycinase was dialyzed for 24 hours. The dialyzed moenomycinase was incubated with moenomycin A (6 mg/ml) in 100 mM potassium phosphate buffer, pH 8.0, for 31 hours with the addition of metal ions (0.5 or 1.0 mM, except K^+ =20 mM0 or EDTA (10 mM). Enzyme activity was measured by determining the amount of MC formed using TLC and UV analysis as described in Example 3. The TLC plates were scanned at a wavelength of 254 nm using a DESAGA Chromatogram Densitometer CD50. Enzyme activity is expressed relative to the activity of the dialyzed preparation ("Dial").
FIG. 2. Activation of Moenomycinase by Cobalt. Purified moenomycinase was incubated with moenomycin A in the presence of the indicated concentrations of Co^++. Enzyme activity was measured by determining the amount of MB formed using TLC and UV analysis as described in FIG. 1.
The molecular weight of moenomycinase is 230,000±10,000 Dalton. Moenomycinase has an optical pH of 8.0 to 8.5 and an optimal temperature of 45° to 55° C. Moenomycinase has a Km value of 4 to 10 mmolar based on moenomycin A as substrate.

| Compound | Inhibition of moenomycinase |
| --- | --- |
| CC(=O)OCC1=C(C(=O)O)N2C(=O)[C@@H](N)[C@H]2SC1 [7-aminocephalosporin acid (7-ACA), 7-aminocephalosporin acid] | inhibited |
| CC(=O)OCC1=C(C(=O)O)N2C(=O)[C@@H](NC(=O)CCC[C@@H](N)C(=O)O)[C@H]2SC1 [Cephalosporin C] | inhibited |
| O=C(O)CN(CCN(CC(=O)O)CC(=O)O)CC(=O)O [EDTA] | inhibited |
| C=O [formalin] | inhibited |

Same assay, conditions: metal ions 0.05-1.0 mM

| Compound | Activation of moenomycinase |
| --- | --- |
| [Ca+2] [Ca^++] | activated |
| [Co+2] [Co^++] | activated |
| [Mg+2] [Mg^++] | activated |
| [Ni+2] [Ni^++] | activated; also recorded: greatest activation |
